# Entries after “also recorded” stand apart in the source; their conditions may differ.
# Columns and labels:
# [1] = system: uricase −/− mice; experiment: Serum uric acid in chronic hyperuricemia model, drug in drinking water; assay type: in vivo
# Experimental: Serum uric acid (SUA) levels in uricase −/− mice were used to probe the effects of treatment with drinking water containing allopurinol, DHNB, and niflumic acid (NFA). Under the maintenance of allopurinol, adult uricase−/− mice show relatively low SUA (2-4 mg/dL). […] For the current experiments, the allopurinol water was stopped and normal water was supplied to uricase−/− mice for one week; and then uricase−/− mice were treated with DHNB (150 mg/L) or NFA (150 mg/L) in drinking water. Additionally, uricase−/− mice were given allopurinol (150 mg/L) as a positive control, while normal water was given for a negative control. All drug/waters were refreshed every week. Serum uric acid (SUA) levels of treated and control mice were determined 1-2 weeks, 4-6 weeks or 8-10 weeks after the treatment (see FIG. 10). Mouse blood (100˜200 μL) was taken via facial vein at the scheduled time point. The blood was allowed to clot for 1 hour at room temperature and then centrifuged at 2350 g for 4 minutes to obtain serum. The serum was kept on ice and assayed immediately by the tungsten phosphate method, as known to those of skill in the art.
# [2] = system: uricase −/− mice; experiment: Serum uric acid in chronic hyperuricemia model, drug in solid chow diet; assay type: in vivo; conditions: for SUA: 250 mg/Kg food, 6-8 weeks; for SUA levels versus regular chow control: 250 mg/kg food, 6 to 8 weeks, p<0.001
# Experimental: An analogous study was performed to investigate the effects on SUA in uricase −/− mice treated with solid chow diet formulated with NFA, DHNB, and allopurinol. NFA, DHNB or allopurinol was formulated into solid chow diet (250 mg/kg food, LabDiet® 5V5R, ½″ pellet; Irradiated) from the company (Test Diet, St. Louis, MO and Lab Supply, Inc). Allopurinol water was stopped for uricase−/− mice, while normal water was supplied during experiments. Uricase−/− mice (1-2 months age, male and female), were given special solid chow die including NFA, DHNB or allopurinol (250 mg/kg food). In separate mice, special solid chow diet containing allopurinol (250 mg/kg food) was given for a positive control and regular solid chow diet was given for a negative control. Blood samples were obtained and processed at 6 or 8 weeks after the treatment (see FIG. 11). Serum uric acid was determined using the tungsten phosphate method.
# [3] = system: allantoxanamide-treated mice; experiment: Hypouricemic effect in allantoxanamide induced hyperuricemic mice (Example 3); assay type: in vivo, C57BL/6 mice; conditions: 50 mg/kg oral gavage once; 1.5, 3 and 23 hours; p<0.05
# Experimental: A hyperuricemia mouse model was used. Allantoxanamide, a potent uricase inhibitor, was used to induce hyperuricemia in mice in this study. Briefly, adult C57BL/6 mice (15-25 g. 6-8 weeks old) were injected intraperitoneally (i.p.) with allantoxanamide at 100 mg/kg or 200 mg/kg in 0.5% sodium carboxymethyl cellulose (CMC-Na) in a volume of 0.1 ml/10 g mouse body weight, to increase the serum uric acid level. The mice then received the test compound morniflumate at a concentration of 50 mg/kg in 1.0% polyethylene glycol 400 (PEG400 in a volume of 0.1 ml/10 g mouse body weight), via oral gavage. Positive control mice received allopurinol at the same concentration as test compound after i.p. injection of allantoxanamide. The negative control mice received PEG400 only after i.p, injection of allantoxanamide. Blood samples were collected through the facial vein at 1,5 hours, 3 hours, and 23 hours after the oral gavage. The blood was allowed to clot for 1 hour at room temperature and then centrifuged at 2350×g for 4 minutes to obtain serum. The serum was kept on ice and assayed immediately. Serum uric acid was determined using the phosphotungstate method, as known to those of skill in the art.
# [4] = system: allantoxanamide-treated mice; experiment: Serum uric acid in acute hyperuricemia mouse model, allantoxanamide-treated (Example 4); assay type: in vivo, C57BL/6 mice; conditions: 50 mg/kg oral gavage once
# Experimental: Adult C57BL/6 mice (15-25 g, 6-8 weeks old) were injected intraperitoneally (i.p.) with allantoxanamide at 100 mg/kg in 0.5% sodium carboxymethyl cellulose (CMC-Na) in a volume of 0.1 ml/10 g mouse body weight, to increase the serum uric acid level. Then the mice received a test compound at a concentration of 50 mg/kg in 1.0% polyethylene glycol 400 (PEG-400 in a volume of 0.1 ml/10 g mouse body weight), via oral gavage. Positive control mice received allopurinol at the same concentration as the test compound after i.p. injection of allantoxanamide. The negative control mice received PEG400 only after i.p. injection of allantoxanamide. Blood samples were collected through facial vein at 3 hours and 23 hours after the oral gavage (one time treatment). The blood was allowed to clot for 1 hour at room temperature and then centrifuged at 2350×g for 4 minutes to obtain serum. The serum was kept on ice and assayed immediately. Serum uric acid was determined using the phosphotungstate method, as known to those of skill in the art.
# Allopurinol was used as a positive control. Allantoxanamide is a potent uricase inhibitor. […] Animal numbers used in this experiments [Negative control (baseline)=11; allantoxanamide=10, allopurinol (positive control)=4; niflumic acid=6; NFA-impurity E=6; talniflumate=6 and ethylniflutnate=6].
# [5] = biological target: T1, Xanthine oxidase from bovine milk (Bos taurus, UniProt P80457); experiment: XO inhibition assay, cell-free, spectrophotometric monitoring of uric acid formation at 295 nm; assay type: biochemical; conditions: for type of inhibition / Ki: Lineweaver-Burk plot; for Ki: read-out: inhibitor constant (Ki); for inhibition of XO compared among 25 compounds and with allopurinol: each compound at 20 μM; for Vmax of XO: in the presence of different concentrations of the inhibitor; for initial rate of uric acid formation with longer pre-incubation times with XO: pre-incubated with XO for varying times, then xanthine added
# T1 construct: Xanthine oxidase from bovine milk; purchased Sigma Chemical Co. (St. Louis, MO); host or cells: bovine milk
# Excerpt: Xanthine oxidase from bovine milk, xanthine, allopurinol, niflumic acid (NFA), ethyl niflumate, 2-(3-chloro-5-(trifluoromethyl)-2-pyridylthio)pyridine-3-carboxylic acid, 2-[3-(trifluoromethyl)phenoxy]nicotinic acid, clonixin, flunixin, flufenamic acid, indomethacin, naproxen, diclofenac, aspirin, ibuprofen, talniflumate, 6-phenylamino-nicotinic acid, 2-phenylamino-nicotinic acid, N-phenylanthranilic acid, mefenamic acid, tolfenamic acid, meclofenamic acid, floctafenic acid, and dimethyl sulfoxide (DMSO) were obtained from Sigma Chemical Co. (St. Louis, MO). Morniflumate was purchased from Toronto Research Chemicals, Inc. (North York, Canada).
# The uric acid absorbance at 295 nm was followed and the intensity data were collected every 30 seconds for 10 minutes. The initial rate of uric acid formation was generated for the reaction and converted to XO activity as 100% without any inhibitor (negative control). The inhibitory effect of NFA on XO activity was calculated as compared with the negative control (DMSO).
# The formation of uric acid during the oxidation of xanthine by XO in the absence of NFA was recorded (see FIG. 2A). Uric acid formation was monitored as the absorbance at 295 nm over a period of 0-10 minutes during the oxidation of xanthine. The corresponding data were recorded for the oxidation of xanthine by XO in the presence of 10 μM NFA over a period of 0-10 minutes (see FIG. 2B).
# Enzyme kinetics analysis of NFA—The inhibition kinetics of NFA on XO was determined by using the Lineweaver-Burk plot (see FIG. 3A). […] The maximum velocity (Vmax) and Michaelis-Menten constant of XO were determined in the presence of different concentrations of NFA (see FIG. 3B).
# Dose-dependent effects—The dose-dependent effects on XO inhibition by NFA, NFA impurity E (labeled as “Impurity E”), flunixin, clonixin, and flufenamic acid were studied (see FIG. 5). Varying concentrations (0-40 μM) of each compound were pre-incubated with 20 nM of XO. Allopurinol was used as a positive control and DMSO was used as a negative control.
# The inhibition kinetics of NFA impurity E on XO was determined by using the Lineweaver-Burk plot (see FIG. 7A). […] The maximum velocity (Vmax) and Michaelis-Menten constant of XO was determined in the presence of different concentrations of NFA […] (see FIG. 7B).
# XO (20 nM) was pre-incubated with NFA, allopurinol or a combination of NFA and allopurinol for 1 minute in a phosphate buffer ([…] pH 7.2), followed by the addition of […] xanthine to start the reaction. XO activity was analyzed by measuring the production of uric acid.
# [6] = Stability of NFA during pre-incubation with XO (absorbance at 287 nm); assay type: physicochemical; conditions: incubated with XO for 0 to 47 hours
# [7] = 150 mg/L in drinking water, 1-2 weeks
# [8] = 150 mg/L in drinking water, 4-6 weeks
# [9] = 150 mg/L in drinking water, 8-10 weeks
# T1 sequence (P80457 whole entry): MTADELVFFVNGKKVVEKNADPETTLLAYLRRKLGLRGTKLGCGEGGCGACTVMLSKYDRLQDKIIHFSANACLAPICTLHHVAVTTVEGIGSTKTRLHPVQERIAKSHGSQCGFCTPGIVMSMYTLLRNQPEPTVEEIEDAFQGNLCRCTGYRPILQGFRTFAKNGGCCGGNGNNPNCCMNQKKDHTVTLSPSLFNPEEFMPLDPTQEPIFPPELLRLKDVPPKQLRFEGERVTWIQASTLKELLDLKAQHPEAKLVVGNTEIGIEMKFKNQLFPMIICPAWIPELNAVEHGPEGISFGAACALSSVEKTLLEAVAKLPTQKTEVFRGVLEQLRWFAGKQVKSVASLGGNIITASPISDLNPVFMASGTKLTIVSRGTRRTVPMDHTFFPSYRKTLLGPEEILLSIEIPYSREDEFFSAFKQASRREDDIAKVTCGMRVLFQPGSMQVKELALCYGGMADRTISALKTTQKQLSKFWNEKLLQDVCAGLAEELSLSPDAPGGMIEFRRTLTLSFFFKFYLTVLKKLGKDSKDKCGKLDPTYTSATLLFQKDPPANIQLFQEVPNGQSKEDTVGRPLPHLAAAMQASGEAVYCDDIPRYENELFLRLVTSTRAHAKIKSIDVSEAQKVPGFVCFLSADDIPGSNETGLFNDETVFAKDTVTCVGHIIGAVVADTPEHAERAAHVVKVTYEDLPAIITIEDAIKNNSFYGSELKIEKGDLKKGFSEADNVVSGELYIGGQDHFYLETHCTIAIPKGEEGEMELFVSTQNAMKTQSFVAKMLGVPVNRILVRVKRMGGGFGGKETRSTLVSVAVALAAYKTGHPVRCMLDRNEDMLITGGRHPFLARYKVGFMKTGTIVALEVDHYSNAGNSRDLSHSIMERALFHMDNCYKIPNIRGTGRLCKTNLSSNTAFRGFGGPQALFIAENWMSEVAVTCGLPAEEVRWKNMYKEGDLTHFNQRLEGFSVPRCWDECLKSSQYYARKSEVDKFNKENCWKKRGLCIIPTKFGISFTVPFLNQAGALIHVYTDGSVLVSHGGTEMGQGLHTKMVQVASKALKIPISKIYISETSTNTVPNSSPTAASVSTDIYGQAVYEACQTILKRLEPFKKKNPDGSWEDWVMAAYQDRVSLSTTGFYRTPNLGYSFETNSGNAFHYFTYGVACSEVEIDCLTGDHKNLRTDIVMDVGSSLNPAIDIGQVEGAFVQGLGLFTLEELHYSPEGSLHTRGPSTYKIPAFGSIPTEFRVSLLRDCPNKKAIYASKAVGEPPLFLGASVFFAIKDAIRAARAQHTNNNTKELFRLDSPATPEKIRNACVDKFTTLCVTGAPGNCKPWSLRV
Structure (SMILES),"SUA [1, 7]","SUA [1, 8]","SUA [1, 9]",SUA [2],SUA levels versus regular chow control [2],SUA levels versus allantoxanamide control ([4]; 3-hour time point),SUA levels versus allantoxanamide control ([4]; 23-hour time point),further results
"Oc1ncnc2[nH]ncc12 [Allopurinol, allopurinol]",3.34 ± 0.87 mg/dL,3.45 ± 0.49 mg/dL,4.28 ± 0.80 mg/dL,4.33 ± 1.15 mg/dL,significantly reduced SUA levels,significantly reduced SUA levels,significantly reduced SUA levels,"SUA under maintenance of allopurinol ([1]; adult uricase−/− mice, maintenance allopurinol water): 2 to 4 mg/dL; SUA levels versus allantoxanamide control [3]: significantly reduced SUA levels"
"O=Cc1cc(O)c(O)c([N+](=O)[O-])c1 [DHNB, 3,4-dihydroxy-5-nitrobenzaldehyde]",5.37 ± 1.06 mg/dL,5.73 ± 0.76 mg/dL,5.76 ± 0.81 mg/dL,5.91 ± 1.30 mg/dL,significantly reduced SUA levels,,,
O=C(O)c1ccc(Nc2cccc(C(F)(F)F)c2)nc1 [NFA impurity E],,,,,,significantly reduced SUA levels,significant effect,"dose-dependent XO inhibition, rank ([5]; 0-40 μM pre-incubated with 20 nM XO): most potent amongst each of the compounds tested; type of inhibition [5]: mixed-type inhibition; Ki [5]: 30 nM; inhibition of XO compared among 25 compounds and with allopurinol [5]: most potent inhibitor amongst the compounds tested; also recorded: most effectively inhibit XO activity; Vmax of XO [5]: 0.044 µM/s; initial rate of uric acid formation with longer pre-incubation times with XO [5]: did not change"
"O=C(O)c1cccnc1Nc1cccc(C(F)(F)F)c1 [Niflumic acid, niflumic acid]",5.47 ± 1.21 mg/dL,6.50 ± 0.64 mg/dL,3.89 ± 0.20 mg/dL,5.17 ± 1.28 mg/dL,significantly reduced SUA levels,significantly reduced SUA levels,significant effect,"IC50 ([5]; 20 nM XO, read-out: IC50, inhibitory effect on XO activity): 2750 nM; type of inhibition [5]: mixed-type inhibition; Ki [5]: 368 nM; relative enzymatic activity ([5]; at 20 μM): approximately 20%; XO relative activity ([5]; at lower concentrations (≤3.3 μM)): 45%; inhibition of XO compared among 25 compounds and with allopurinol ([5]; listed as NFA): inhibitory effect similar to that of allopurinol; also recorded: most effectively inhibit XO activity; Vmax of XO [5]: 0.04 µM/s; initial rate of uric acid formation with longer pre-incubation times with XO [5]: did not change; effect of pre-incubation with XO on stability [6]: no effect on the stability; SUA levels versus control mice ([1]; 150 mg/L in drinking water, all three time points, p<0.001): significantly reduced SUA levels"
"CCOC(=O)c1cccnc1Nc1cccc(C(F)(F)F)c1 [ethylniflumate, ethyl niflumate]",,,,,,significantly reduced SUA levels,,
Cc1c(Nc2ncccc2C(=O)O)cccc1C(F)(F)F [flunixin],,,,,,,,inhibition of XO compared among 25 compounds and with allopurinol [5]: decreased its XO inhibitory activity
"O=C(OCCN1CCOCC1)c1cccnc1Nc1cccc(C(F)(F)F)c1 [morniflumate, Morniflumate]",,,,,,,,SUA levels versus allantoxanamide control [3]: significantly reduced SUA levels
O=C1OC(OC(=O)c2cccnc2Nc2cccc(C(F)(F)F)c2)c2ccccc21 (centres unmarked) [talniflumate],,,,,,significantly reduced SUA levels,significant effect,
